Laboratory results as given in paper PMC7969873 (Cell Reports, 2021).
Where two headings read alike, the source gives them in different places.

Legend:
[1] = tested on: CHK1 phosphorylation (pCHK1); test: CHK1 phosphorylation in Vero E6 cells (western blot); assay type: cell-based
Description: Cells were lysed in 50 mM Tris pH 7.4, 1% NP-40, 0.25% sodium deoxycholate, 1 mM EDTA, 150 mM NaCl, 1 mM Na3VO4, […], 1mM PMSF, 2 mg ml^-1 aprotinin, 2 mg ml^-1 leupeptin and 0.7 mg ml^-1 pepstatin or Laemmli Sample Buffer (Bio Rad, Hercules, CA). Cell lysates were resolved by SDS-PAGE using 10% gradient gels and transferred to a 0.2 μm PVDF membrane. Subsequently, the membranes were blocked with 5% skim milk and 0.1% Tween-20 in 1x TBST (0.1% Tween-20) at room temperature for 1 hour. The membranes were then probed with respective monoclonal antibodies and detected by Thermo Scientific SuperSignal West Femto Maximum Sensitivity Substrate.

IL6 = IL6 gene expression in SARS-CoV-2-infected Vero E6 cells (RT-qPCR); assay type: cell-based
ATR = tested on: ATR; design: method as in vendor Selleckchem; details: HT29 cells; ref vendor Selleckchem; read-out: IC50, ATR inhibition; cited from earlier work
Calu-3 cells = test: Cell viability assay (MTT) in Calu-3 cells; assay type: cell-based, human
Description: Calu-3 and A549-ACE2 were seeded in 96-well plates with 3.5 × 10^5 cells/ml, 100 μL per well, for 24 h. The compounds to be tested or pure DMSO as […] control were serially diluted in CoV infection medium (DMEM, supplemented with 1 % L-glu, 1 % P/S and 2 % FBS) to obtain 5-fold of the desired final concentrations. The growth medium was removed from the cells and replaced with 80 μl/well of fresh infection medium. Subsequently, 20 μL of the diluted compounds were added in quadruplicates for each concentration (i.e., 5-fold dilution to reach the final concentrations). Cells were incubated for 48 h at 37°C (5% CO2, 96 % rH). At 48 h post treatment, cell viability was measured on a Tecan Safire 2 plate reader using the CellTiter 96® Non-Radioactive Cell Proliferation Assay (MTT) (Promega) according to manufacturer’s instructions.

SARS-CoV-2 [2] = test: microbe, parasite or virus in culture; assay type: cell-based; details: for IC50: Severe acute respiratory syndrome coronavirus 2, A549-ACE2, 24 h, 24 h, read-out: IC50, SARS-CoV-2 immunostaining signal
human primary lung cells = test: Toxicity in human primary lung cells; assay type: cell-based
hiPSC-CMs = test: Cardiomyocyte beating / in vitro cardiotoxicity in hiPSC-CMs; assay type: cell-based, human; details: hiPSC-CMs; 250 nM
Description: Thus, we used the human-induced pluripotent stem-cell-derived cardiomyocyte (hiPSC-CM) system for antiviral drug testing against SARS-CoV-2. […] Thus, this cardiomyocyte system is useful for antiviral drug testing against SARS-CoV-2. […] The inhibition of virus production by berzosertib was evaluated by quantifying the infectious virus (TCID50) in the supernatant at various time points (Figure 2B). […] Infection of cardiomyocytes with SARS-CoV-2 was confirmed by specific staining of cardiac troponin T (cTnT) and viral spike proteins (Figure 2E). Untreated SARS-CoV-2-infected cells had infection-mediated cell injury with disrupted troponin T fibers.

SARS-CoV-2 [3] = test: microbe, parasite or virus in culture; assay type: cell-based; details: Vero E6 cells; IFA; read-out: IC50, inhibition of SARS-CoV-2 infectivity
SARS-CoV-2 [4] = tested on: SARS-CoV-2
SARS-CoV-2 [5] = test: microbe, parasite or virus in culture; assay type: cell-based
SARS-CoV-2 [6] = test: SARS-CoV-2 infection of HEK293-ACE2 cells (IFA); assay type: cell-based; details: 100 nM, 48 hpi
[7] = HeLa-ACE2 uninfected host cell cytotoxicity counter screen; assay type: cell-based; details: human, uninfected HeLa-ACE2 cells; read-out: median cytotoxic concentration (CC50)
Description: Compounds were acoustically transferred into 1,536-well μclear plates (Greiner Part. No. 789091). HeLa-ACE2 cells were maintained as described for the infection assay and seeded in the assay-ready plates at 400 cells/well in DMEM with 2% FBS and plates were incubated for 24 hours at 37°C 5% CO2. To assess cell viability, the Image-iT DEAD green reagent (Thermo Fisher) was used according to manufacturer instructions. Cells were fixed with 4% paraformaldehyde, and counterstained with DAPI.

SARS-CoV-2 [8] = test: microbe, parasite or virus in culture; assay type: cell-based; details: Severe acute respiratory syndrome coronavirus 2, Calu-3 cells, read-out: IC50, SARS-CoV-2 viral titer
SARS-CoV-2 [9] = assay type: cell-based; details: hiPSC-CMs, 250 nM
SARS-CoV-2 [10] = test: SARS-CoV-2 replication kinetics in Vero E6 cells (RT-qPCR genome copies, western blot); assay type: cell-based; details: for viral genome and protein production: from 8 h onward
SARS-CoV-2 [11] = assay type: cell-based; details: 250 nM, Vero E6 cells, 48 h
MERS-CoV = test: microbe, parasite or virus in culture; assay type: cell-based; details: Middle East respiratory syndrome-related coronavirus, Calu-3, read-out: IC50, MERS-CoV viral titer
[12] = design: method as in earlier work; details: cancer setting, phases 1 and 2, ref Konstantinopoulos et al., 2020, Yap et al., Thomas et al., 2018; cited from earlier work
SARS-CoV-1 = test: microbe, parasite or virus in culture; assay type: cell-based; details: Severe acute respiratory syndrome coronavirus, Calu-3, read-out: IC50, SARS-CoV-1 viral titer

CNCc1ccc(-c2cc(-c3nc(-c4ccc(S(=O)(=O)C(C)C)cc4)cnc3N)on2)cc1 [Berzosertib]
phosphorylation of CHK1 [1]: reduced | viral-mediated induction of pro-inflammatory gene IL6 (IL6): reduced | IC50 (ATR): 19 nM | concentration with detectable toxicity (Calu-3 cells): > 50 µM | combination effect (isobologram, Compusyn) (SARS-CoV-2 [2]): synergistic | selectivity index (SI) (SARS-CoV-2 [2]; A549-ACE2 cells): 204 | IC50 (SARS-CoV-2 [2]): 240 nM | IC50 (SARS-CoV-2 [2]; A549-ACE2 cells, […]): 220 ± 30 nM | concentration with detectable toxicity (human primary lung cells): > 50 µM | in vitro cardiotoxicity (hiPSC-CMs): No in vitro cardiotoxicity | IC50 (SARS-CoV-2 [3]): < 25 nM | median effective dose (ED50), percentage of infected cells (SARS-CoV-2 [4]; HeLa-ACE2 cells): 200 nM | total cells per well (cytotoxic effect at active concentrations) (SARS-CoV-2 [4]; SARS-CoV-2-infected HeLa-ACE2 cells): did not change | inhibition of SARS-CoV-2 (SARS-CoV-2 [5]): effective | IC50 (SARS-CoV-2 [5]; Severe acute respiratory syndrome coronavirus 2, human primary lung cells): 40 nM | inhibition of virus replication (SARS-CoV-2 [6]): complete inhibition | CC50 at 24 h [7]: 3890 nM | IC50 (SARS-CoV-2 [8]): 480 nM | virus production (infectious virus, TCID50, in supernatant) (SARS-CoV-2 [9]): significantly reduced | apoptotic cell death associated with viral infection (SARS-CoV-2 [9]; cleaved caspase-3): significantly reduced | number of viral genome copies at 2 hpi (entry) (SARS-CoV-2 [10]; 2 hpi): not affected | viral genome and protein production (SARS-CoV-2 [10]): inhibited | viral genome and protein production (SARS-CoV-2 [10]; listed as berzosertib): significantly reduced | antiviral activity (prevention of viral CPE) in primary screen (SARS-CoV-2 [11]): antiviral activity | IC50 (MERS-CoV): 290 nM | tolerability in oncology clinical studies [12]: well tolerated | IC50 (SARS-CoV-1): 320 nM
